Results taken from ChEMBL document CHEMBL3507680, “University of Dundee, Gates Library screen for HepG2 cell viability”.

Assay: Human HepG2 cell viability assay in 384 well format
Format: toxicity, cell-based
Design: dose 125 nL, time 70.5 hour; cytotoxicity at 70.5 h: concentration not given beside the values
Conditions: HepG2 cells, read-out: Inhibition

Compound	cytotoxicity at 70.5 h [%]
CCSc1cc(C(=O)NCc2ccc(C(=O)NC)cc2)ccn1	-81.1
CCn1nnc2c1C(COC)CN(C(=O)Cc1ccccn1)C2 (configuration not stated)	-15.3
Cc1csc(N2CCC(NCC3(O)CCc4ccccc43)CC2)n1 (configuration not stated)	-7.31
CCCNC(=O)c1cc(C(C)C)nc(N2CCCC2)n1	-8.39
COc1ccccc1-n1nc(CC(C)C)nc1CSc1nnc(N)s1	-15.9
COCc1ncc(CN(Cc2ccncc2)Cc2ccc(C)s2)cn1	-6.86
COc1ccccc1C1(CNc2cn[nH]c(=O)c2Cl)CCOCC1	-13.8
CC(C)(C)NC(=O)C1CSCN1S(=O)(=O)c1ccccc1S(C)(=O)=O (configuration not stated)	-1.89
Cc1cc2cc(C(=O)N[C@@H]3CC[C@@H](N4CCOCC4)[C@@H]3O)ccc2o1	24.8
COc1cccc([C@@H](C)n2ccnc2-c2cc3n(n2)CCNC3)c1	-10.2
CN(CC1COc2ccccc2O1)C(=O)NCCCn1ccnc1 (configuration not stated)	33.9
O=C(c1cc[nH]n1)N1CCc2c(nc(N3CCCCC3)[nH]c2=O)C1	-4.43
CCc1ncc(CN(C)C(=O)Nc2cccnc2N2CCCC2)s1	0.712
Fc1ccc(CN2CCOC(Cn3cncn3)C2)c2ncccc12 (configuration not stated)	-3.84
COc1cc(-c2n[nH]c(CO)n2)cc(OC)c1OC	29.6
CC(C)c1noc(CN2CCN(C(=O)c3cc(Cl)ccc3F)CC2)n1	-8.7
CC(=O)N1CCN(Cn2nc(-c3ccc(F)cc3)oc2=O)CC1	-8.85
Cc1nc(N)ncc1C(=O)N1CCCC(CCc2ccc(F)c(F)c2)C1 (configuration not stated)	-16.6
CCc1nc(CN2CCOC(CN(CC)c3cccnn3)C2)cs1 (configuration not stated)	-12.8
O=C(N[C@H]1CC[C@@]2(CCC(=O)N2CC2CC2)CC1)c1cnccn1	-11
Cc1ccc2cc(C(=O)NCCN3CCS(=O)(=O)CC3)c(C)nc2c1	-15.9
COc1cc(C2SCC(=O)Nc3n[nH]cc32)cc(OC)c1O (configuration not stated)	-19.7
O=C(NC1CCN(c2snc3ccccc23)CC1)C1CCC1	14.4

Compound	cytotoxicity at 70.5 h [%]
COCC(NC(=O)c1ccc(O)nc1)c1ccc(C)o1 (configuration not stated)	0.572
O=C(c1ccco1)N1CC[C@@H]2O[C@@H](COCC3CCOCC3)CC[C@@H]21	11.4
CS(=O)(=O)N1CCO[C@@H]2CN(Cc3ccncc3)C[C@@H]2C1	-5.73
CC(C)c1nc(CN2CCN(C(=O)Cc3ccccc3Cl)CC2)no1	-1.7
CS(=O)(=O)NC1CCCN(C(=O)COCc2ccccc2)C1 (configuration not stated)	-10.6
O=C(NCCCn1cncn1)N1CCCC(N2CCCC2)C1 (configuration not stated)	-4.6
O=S(=O)(c1ccccc1F)N1CCCC(c2nccs2)C1 (configuration not stated)	-1.24
Cc1cc(C(=O)NCC(C)C)c2c(C3CCCN3)noc2n1 (configuration not stated)	-5.52
CC(=O)Nc1cc(Br)cnc1OCC(F)(F)F	20.4
Nc1nnc(SCc2cc(=O)n3c4c(sc3n2)CCCC4)s1	-8.05
COc1ccc(CNC(=O)Nc2ccc(N3CCCC3)nc2)cc1O	-2.31
COc1cc(C)c(C2CC(=O)Nc3cc(NS(C)(=O)=O)ccc32)cc1C (configuration not stated)	0.99
O=C(CCSc1ccccc1F)N1CCN(c2cnccn2)CC1	11
COc1ccccc1OCc1cc(C(=O)N2[C@H](C)CC[C@@H]2C)n[nH]1	-6.18
FC(F)(F)c1nc(NC2CCCC2)c2ccccc2n1	-12.8
COc1cc(NC(=O)c2ccc(Cl)cc2F)c(C(=O)N(C)C)cc1OC	-11.5
O=S(=O)(c1ccccc1)N1CCC2(CCCN2CC2CCCC2)C1 (configuration not stated)	-5.67
O=C(Cc1cccc(O)c1)N1CCCC(OCc2cccnc2)C1 (configuration not stated)	-7.55
CN(C)CCN(Cc1cccc(F)c1)C(=O)c1ccc2nccn2c1	-43.4
Cc1ccc(CN2CC[C@H]3[C@H]2CC(=O)N3c2cccnc2)o1	8.92
COCC1CN(Cc2ccc(C)o2)Cc2cnn(CC3CCOCC3)c21 (configuration not stated)	6.49
O[C@@]1(CNCC2(Cn3ccnc3)CC2)CCCN2CCCC[C@@H]21	-13.1
Cc1ccc(=O)n(Cc2csc(N(C)C3CC3)n2)n1	-10.2

Compound	cytotoxicity at 70.5 h [%]
CCC1CN(C(=O)c2cc(CN(C)CCc3ccccc3)on2)CCO1 (configuration not stated)	-7.15
CCCNC(=O)Nc1cc2c(cc1SC)OCCO2	0.576
Cc1ccc(CN(Cc2ccccn2)C(=O)CCC2CCCN(C)C2)s1 (configuration not stated)	32.1
Cc1cc(S(=O)(=O)N2CCC(S(C)(=O)=O)C2)ccc1F (configuration not stated)	-5.71
Cc1ccc(CN2CCOC(c3cnccn3)C2)s1 (configuration not stated)	-5.54
CNc1nc(C(=O)N2C[C@H]3CC[C@@H]2CN(C2CCOCC2)C3)cs1	-10.2
COCC(=O)NC(c1ccc(Cl)cc1)C(F)(F)F (configuration not stated)	-12.5
Cc1nnc2n1CCN(C(=O)c1cc(C)n(-c3cccnc3)c1C)C2	-1.82
COCCN(CCC#N)S(=O)(=O)c1ccc(F)cc1Cl	0.577
CC(Nc1ncnc2sccc12)c1cnn(C)c1 (configuration not stated)	-12.3
CN1CC2(CCNCC2)COc2ccccc2S1(=O)=O	-2.93
Cc1nc[nH]c1CN(Cc1ccccc1)C1CC(C)(C)NC(C)(C)C1	4.53
Cc1nccc(C(=O)N2CCCC(c3cc(C(F)(F)F)[nH]n3)C2)n1 (configuration not stated)	-2.27
O=C(c1ccccc1)N1CCO[C@@H]2CN(c3cnccn3)C[C@@H]2C1	-12.3
CCC1CCCN(Cc2nc3ccccc3c(=O)[nH]2)C1 (configuration not stated)	-14
Oc1nc(N2CCOCC2)nc2nccc(-c3ccccn3)c12	-4.58
Cc1cnc(N2CC[C@@H]3O[C@@H](COCc4ccccn4)CC[C@@H]32)nc1	-8.03
O=C(Cn1ccc(=O)[nH]c1=O)NCc1cccnc1OCC(F)(F)F	-10.1
O=C([C@@H]1CCO[C@@H]2CCN(Cc3ccsc3)C[C@@H]21)N1CCCC1	-16.1
CC(C)Cn1nc(-c2ccc(C(=O)O)cc2)cc1-c1ccc(F)cc1	-5.39
COCC(=O)Nc1cnc(N2CCOCC2)nc1	-3.21
Cc1cc(CN2CCN(CC(O)c3cccc(F)c3)CC2)no1 (configuration not stated)	-4.25
Cc1cccc(NCc2ncc(C(C)(C)C)o2)c1	12.6

Compound	cytotoxicity at 70.5 h [%]
CCOC(=O)[C@@H]1[C@@H](c2ccccc2)CN2CCN(C(=O)C3CC3)C[C@H]12	16.5
CCOC(=O)C(C)NC(=O)CCc1ccc(F)cc1 (configuration not stated)	1.35
COCCN(C(=O)c1ccoc1C)c1ccc(C#N)cc1	-4.2
CCC(CC)CN(C)Cc1nc(-c2ccccc2NS(C)(=O)=O)oc1C	-5.33
CN(Cc1ccn[nH]1)Cc1c[nH]nc1-c1ccc(F)cc1	-3.15
COc1ccc2c(c1)NC(=O)C2OC(=O)Cc1ccccc1C (configuration not stated)	31.3
CC(C)n1[nH]c(=O)c2c1NC(=O)CSC2C1CCCCC1 (configuration not stated)	9.25
CC(NC(=O)CCC(=O)c1cccs1)c1nnc2n1CCCCC2 (configuration not stated)	-15.6
Cc1cccc(S(=O)(=O)N2C[C@H]3C[C@H](C(=O)NCC4CC4)[C@@H](C2)O3)c1	-0.444
Cc1noc(C)c1CN1CC[C@@H]2O[C@H](COCC(C)C)CC[C@@H]21	-3.29
CC(C)[C@H]1CN(C2Cc3ccccc3C2)C[C@@H]1NS(=O)(=O)N(C)C	0.396
Cc1cn2nc(N3CCN(Cc4c(C)noc4C)CC3)sc2n1	0.994
COCCCN1CCC(NC(=O)C2CC2)CC1	-4.57
CCc1nnc(CSc2ccccn2)o1	-9.38
COCCc1noc(CN(C)C(=O)C(C)N2CCc3ccccc3C2)n1 (configuration not stated)	-9.3
COCC1c2nnn(CC3CC3)c2CCN1C(=O)c1cc(C)[nH]c1C (configuration not stated)	-9.95
CN1CCC(N(C)C[C@H]2CC[C@@H](Cc3cccc(O)c3)O2)CC1	43.7
CC(C)CNC(=O)N1CCOC2(CCNCC2)C1	-3.81
CC(C)c1nnc2n1CCN(C(=O)c1ccc(-n3cnnc3)cc1)C2	27.3
Cc1n[nH]c(C)c1CC(=O)N1CC[C@@](C)(O)[C@@H](Cc2ccccc2)C1	-16.1
Cc1cccc(N2CCC(NCc3cnc(C4CCC4)s3)CC2)n1	3.13
CCc1nc(C)c(C2CC(=O)Nc3c2c(-c2ccccn2)nn3C)[nH]1 (configuration not stated)	1.83
Cn1nc(C(=O)NC2(c3ccc(Cl)cc3)CCCC2)ccc1=O	24.7

Compound	cytotoxicity at 70.5 h [%]
O=C1N(Cc2cccnc2)CCC12CCCN(c1ncccn1)C2 (configuration not stated)	17.3
O=C(C1CC1)N1CCc2c(ncnc2NCCc2nc3c(s2)CCC3)C1	13.5
Cc1cnc(C(=O)N2CCCC(n3nc(C)nc3C)C2)cn1 (configuration not stated)	-11.1
N#CC1(NC(=O)Cc2cc(Cl)c3c(c2)OCCO3)CCC1	-10.5
CCc1nnc(Nc2cc(C)nc(C3CCN(c4cnccn4)C3)n2)s1 (configuration not stated)	-15.3
O=C(C1CC1)N1CC[C@H](c2nnc(-c3ccccc3F)o2)C1	-7.55
O=C1NC2(CCN(Cc3ccccc3Cl)CC2)CC1c1ccccc1 (configuration not stated)	-9.33
COC[C@]1(O)CCN(c2cc(N3CCOCC3)ncn2)CC1(C)C	-9.52
Cc1ccc(C(=O)NCCSCc2cccs2)cn1	12.6
CC(C)N1CCOCC2(CCCN(C(=O)CCc3cccnc3)C2)C1 (configuration not stated)	-6.39
CSCC(=O)N1C[C@H]2CC[C@@H]1CN(Cc1ccccc1)C2	-3.17
CCn1cc(CN2CC3CCCN3C[C@H]2C)c(C)n1 (some centres not stated)	2.28
Cc1nn(C)c2c(=O)n(Cc3ccc(Cl)cc3)nnc12	-9.56
Oc1cccc(CNC2CCN(CCc3ccncc3)CC2)c1	-1.4
CCSc1nc2ccccc2c(=O)n1OCC(=O)OC	-8.5
Cc1ccc(C(C)(O)CNC(=O)CCn2ccnc2C(C)C)o1 (configuration not stated)	-2.97
CC(C)(O)C1CCCN(C(=O)Nc2nc(-c3ccccc3)ns2)C1 (configuration not stated)	-3.5
OC(CNCCn1cccn1)COc1ccc2ccccc2c1 (configuration not stated)	-0.315
Cc1ccc(OCC(O)CN2CCC(Cn3cccn3)CC2)cc1 (configuration not stated)	-1.48
CCOc1ccc(Cl)c(C(=O)NCCS(N)(=O)=O)n1	22
